Reference: patent publication US7705065B2, “Photoinitiator functionalized with alkoxy groups” (Xerox Corporation, priority 2007, dated 2010)

Assay: Solubility of about 10 wt % photoinitiator in alkoxy-containing curable monomers
Type: physicochemical
Details: about 10 wt % solutions in each of SR9003, SR209, SR399LV and SR454; about room temperature (approximately 22° C. to 27° C.)
Text: The following monomers were used for testing: 1) SR9003 (propoxylated neopentyl glycol diacrylate), 2) SR209 (tetraethylene glycol dimethacrylate), 3) SR399LV (low viscosity dipentaerythritol pentacrylate esters), and 4) SR454 (ethoxylated trimethylolpropane triacrylate esters).

solubility in monomers: insoluble
Structure (SMILES): CC(C)(O)C(=O)c1ccc(OCCO)cc1 [IRGACURE® 2959, 4-(2-hydroxyethyloxy)phenyl-(2-hydroxy-2-propyl) ketone]
